Results on one compound are retold here after patent US20250339569A1, “CARBONIC ANHYDRASE IX LIGANDS” (priority 2021, published 2025).

Where two headings read alike, the source gives them in different places.

Data set [1] can be described thus: Biodistribution study (SPECT/CT) in HT-29 tumor-bearing mice. It is filed as in vivo, NMRI nude mice. To be noted: female, NMRI nude, mouse, in vivo, iv, total radioactivity, HT-29, In-111-labeled, Mean ± SEM. Here is the method:
(§1) The effect on tumor uptake of prior injection of gelofusine for kidney protection was investigated in mice bearing the SK-RC-52 tumor. Biodistribution was evaluated using in vivo SPECT/CT imaging. Prior to the in vivo study the compounds (ligands) were initially radiolabeled with In-111 and the stability of radiolabeled compounds was evaluated in buffer at three different timepoints.
(§2) The study was performed in female NMRI nude mice (approximately 6 weeks of age) from Janvier Labs, France, housed up to 5 mice per cage.
(§3) The column was washed with 2 mL water, and then the final product was eluted from the column in EtOH solution (50%) • The sample was formulated in PBS to the final concentration of 150 MBq/mL and 5 nmol/mL.
(§4) SK-RC-52 cells were cultured in RPMI 1640 with GlutaMax-I (Thermo Fisher Scientific #61870044) supplemented with 10% fetal bovine serum+1% penicillin/streptomycin, harvested, washed twice in RPMI 1640 and resuspended at 2×10^7 cells/mL in RPMI 1640. HT-29 cells were cultured in McCoy's 5a Medium Modified (Sigma #M9309). For inoculation of HT-29 cells, cells were harvested, washed twice in PBS and resuspended at 5×10^7 cells/mL in PBS. Cells were kept on ice until inoculation.
(§5) Animals were anaesthetized (isoflurane, 2-4% in ambient air supplemented with 100% 02) prior to tumor inoculation. The tumor cells (100 μL suspension of either SK-RC-52 cells (2×10^6 cells/animal) or HT-29 cells (5×10^6 cells/animal)) were subcutaneously inoculated in the right flank using a 1-mL syringe equipped with a 27 G needle. Tumor growth and animal weight were measured twice per week. Tumor size was measured by caliper and the volume was estimated using the following formula: 0.52×(length×width^2). When tumor sizes reached 150-250 mm^3, animals were randomized into groups (n=3) of similar average tumor volume and body weight.
(§6) Animals were injected intravenously with In-111-labeled compounds (single bolus, 22.3-31.2 MBq, ˜1 nmol ligand, injection volume: 100 μL) in the lateral tail vein using a 29 G syringe.
(§7) CT was performed with helical scan, 300 ms exposure, reconstruction resolution of 250 μm. SPECT was performed with multi-pinhole scan and a 30 s frame time. For the quantification of the radioactivity uptake, regions of interests (ROIs) were drawn over the tumor, kidney, liver, and heart (estimate of blood) identified on the images. Uptake was expressed as percent of injected dose per gram tissue (% ID/g).

For the next data set, the system named is HT-29 tumor. Described as above. It counts as in vivo, NMRI nude mice. Conditions: HT-29, In-111-labeled. Here is the method: as §1, §2, §3, §4, §5, §6, §7

Consider `CC(C)C[C@@H]1NC(=O)[C@H](Cc2cccc(NC(=O)CCCS(N)(=O)=O)c2)NC(=O)[C@H](CC(=O)O)NC(=O)[C@H]2CCCN2C(=O)[C@H](CCC(=O)O)NC(=O)[C@@H](NC(=O)[C@H](CCC(N)=O)NC(=O)CN2CCN(C(=O)CN3CCN(CC(=O)O)CCN(CC(=O)O)CCN(CC(=O)O)CC3)CC2)CSCc2cccc(c2)CSC[C@@H](C(N)=O)NC(=O)[C@H](CO)NC(=O)[C@H](Cc2c[nH]c3ccccc23)NC(=O)[C@H]([C@@H](C)O)NC1=O` [DPI-4452, DOTA-PPAc-Gln-[Cys(3MeBn)-Glu-pro-Asp-Af3(Cpsu)-Leu-Thr-Trp-Ser-Cys]-NH2], for which the tissue uptake at 4 h is 0.04 ± 0.002 %ID/g in data set [1] (read-out: Blood uptake at 4 h p.i.) and 0.12 ± 0.005 %ID/g in data set [1] (read-out: Liver uptake at 4 h p.i.). Further, the tissue uptake at 24 h in data set [1] (read-out: Kidney uptake at 24 h p.i.) was determined as 1.41 ± 0.11 %ID/g. Further, the “Time to peak uptake in tumor” value in the data set with HT-29 tumor is 2 h. Besides, the “% remaining tumor uptake at 24 h p.i.” value with HT-29 tumor (Mean ± SEM) was determined as 65.8 ± 3.8%.
